Where “and” joins values, the source holds several entries; their conditions need not be identical. Equal entries are not always repeated. Where two headings read alike, the source gives them in different places.
What was measured:
[1] = in vivo; cited from earlier work
[2] = dog, in vivo; cited from earlier work
[3] = all samples 20 min to 72 h; ref [1]; cited from earlier work
[4] = Noncompartmental (NC) analysis of IV bolus serum concentrations in dogs
[5] = for β (PD scale parameter, first arrival time of drug): constrained to 25-30 s; for AUC for CGPC(t) as percent of dose eliminated, 72h-∞: late-time 72 h to ∞ (drug mass remaining at 72 h); for AUC for CGPC(t) as percent of dose eliminated, 1/3-72h: sample-times 20 min to 72 h
[6] = cited from earlier work; for urinary metformin recovery: human, at 60 to 72 h
[7] = in vivo; conditions: both, mixed-breed, dog, serum, iv, mean of seven dogs
[8] = GPC fit, single IV bolus, individual dogs (Dog 1-7)
[9] = GPC fit, single IV bolus, mean of seven dogs

Nc1ccc(C(=O)NCC(=O)O)cc1 [PAH, p-aminohippurate]
EPAH in humans [1]: circa 90% | CLPAH renal clearance [2]: 13.51 mlmin^-1kg^-1 | EPAH arteriovenous extraction ratio [2]: 0.7564 | nominal canine EPAH [2]: 75.6%

CN(C)C(=N)N=C(N)N [metformin, 1,1-dimethylbiguanide]
AUC (E2 fit, single IV bolus, mean of seven dogs): 15.8 mgh/L | p1 (fraction of AUC from first exponential term) (E2 fit, mean of seven dogs): 79.3% | p2 (fraction of AUC from second exponential term) (E2 fit, mean of seven dogs): 20.7% | λ1 (E2 fit, mean of seven dogs): 0.721 h⁻¹ | λ2 (E2 fit, mean of seven dogs): 0.0490 h⁻¹ | CL as percent of expected RPF (E2 mean CL, RPF≈17.86 mlmin^-1kg^-1): 123.7% | CL E2 (biexponential model, mean of seven dogs): 22.1 mlmin^-1kg^-1 | E2 CL-value greater than GPC CL-value (dog 6): 41% | range of serum sample concentrations [3]: 9.78 to 19,100 ng/ml | CL as percent of expected RPF ([4]; NC mean CL, RPF≈17.86 mlmin^-1kg^-1): 104.7% | NC CL-value greater than GPC CL-value ([4]; dog 6): 25% | AUC for CGPC(t) as percent of dose eliminated, 0-72h ([5]; 0 to 72 h (model renal excreted), mean of seven dogs): 78.9% | AUC for CGPC(t) as percent of dose eliminated, 0-72h ([5]; 0 to 72 h, individual dogs 1-7): 91.3% and 71.6% and 84.4% and 79.7% and 67.0% and 82.6% and 75.9% | β (PD scale parameter, first arrival time of drug) ([5]; GPC fit, individual dogs (Dog 1-7)): 30 s and 25 s | β (PD scale parameter, first arrival time of drug) ([5]; GPC fit, mean of seven dogs): 26 s | CL [5, 8]: 11.4 ml/minkg and 14.7 ml/minkg and 9.8 ml/minkg and 11.5 ml/minkg and 26.7 ml/minkg and 19.4 ml/minkg and 12.4 ml/minkg | Peak (time at the maximum of the GPC model) [5, 8]: 1.34 min and 4.85 min and 0.66 min and 6.17 min and 2.21 min and 1.70 min | a (GD shape parameter) [5, 8]: 0.5194 and 0.7629 and 0.3493 and 0.8112 and 0.6689 and 0.6092 and 0.6435 | b (GD rate parameter) [5, 8]: 0.6137 per h and 1.0518 per h and 0.7318 per h and 0.9993 per h and 0.9107 per h and 0.8062 per h and 1.1035 per h | α (PD shape parameter) [5, 8]: 0.1929 and 0.1571 and 0.2644 and 0.1365 and 0.2010 and 0.1726 and 0.1199 | Peak (time at the maximum of the GPC model) [5, 9]: 2.73 min | a (GD shape parameter) [5, 9]: 0.6235 | b (GD rate parameter) [5, 9]: 0.8882 per h | α (PD shape parameter) [5, 9]: 0.1778 | CL as percent of estimated total renal plasma flow (RPF) ([5]; GPC model mean CL, RPF≈17.86 mlmin^-1kg^-1 from PAH meta-analysis): 84.8% | CL GPC ([5]; GPC model, individual dogs 1-7): 14.7 mlmin^-1kg^-1 and 9.8 mlmin^-1kg^-1 and 11.5 mlmin^-1kg^-1 and 26.7 mlmin^-1kg^-1 and 19.4 mlmin^-1kg^-1 and 12.4 mlmin^-1kg^-1 and 11.4 mlmin^-1kg^-1 | early concentration peak, total elapsed time ([5]; GPC models, range of seven dogs): 0.66 to 6.17 min | CL as percent of RPF using geometric means ([5]; GPC, GM EPAH of 35 controls): 84.7% | decrease of drug mass in the body from the initial dose ([5]; at 72 h, […] remaining): 5 fold | AUC for CGPC(t) as percent of dose eliminated, 72h-∞ ([5]; individual dogs 1-7): 8.7% and 28.4% and 15.6% and 20.3% and 33.0% and 17.4% and 24.1% | AUC for CGPC(t) as percent of dose eliminated, 72h-∞ ([5]; mean of seven dogs): 21.1% | decrease of serum concentration from estimated peak concentration ([5]; over 72 h): 1000 fold | AUC for CGPC(t) as percent of dose eliminated, 1/3-72h ([5]; individual dogs 1-7): 53.1% and 58.7% and 63.7% and 60.5% and 50.8% and 62.0% | AUC for CGPC(t) as percent of dose eliminated, 1/3-72h ([5]; mean of seven dogs): 58.5% | urine recovery from IV metformin ([6]; 48 h, may have been inflated, ref Pentikäinen et al. [21]): 99.9% | urinary metformin recovery ([6]; ref Table 1 of [19]): 86% | urinary metformin recovery ([6]; ref Table II of [20]): 78.9% | AUC ([7]; AUC, GPC fit, single IV bolus): 23600 ng·h/mL | clearance ([7]; CL GPC, GPC model): 15.1 mL/min/kg | clearance ([7]; CL, GPC fit, single IV bolus): 15.1 mL/min/kg

Source: publication PMC7040082 (Journal of Pharmacokinetics and Pharmacodynamics, 2019)
